Legend:
[1] = In vivo ocular biodistribution of ICG with OCLX-SCDD POC4 and Clearside needles at 1100 μm; parameters: species or system Yucatan minipig; conditions: for ICG stained area, total coverage area: ICG 5 mg/ml SC, 1 h after injection
Description: In Vivo assessment of ocular biodistribution of ICG with the OCLX-SCDD POC prototype and Clearside needles at 1100 μm in pig eyes.
Suprachoroidal injections enable precise, targeted delivery to the retina, retinal pigment epithelium (RPE), and choroid, potentially offering higher bioavailability to the diseased tissues while minimizing impact on anterior segment tissues. To improve the outcome of gene therapy for AMD through the SCS, we tested if the POC4 SCDD results in ICG dye at the back of the eye. […] This allows entrance into the suprachoroidal space in 4-month-old male minipigs (n=4). Indocyanine Green (ICG), 5 mg/ml, was injected using Clearside 1100 μm (OS) or POC4 of the OCLX-SCDD 1100 μm prototype device (OD) as follows: (1) Mark and confirm selected injection site; (2) Insert the microneedle, creating a small dimple on the ocular surface to allow the tissue to displace gently while the needle enters the suprachoroidal space; (3) Inject slowly and deliberately over 5 seconds to decrease discomfort; (4) After finishing the drug injection, hold the microinjector in place for an additional 3-5 seconds. Light pressure should be applied with a cotton swab after microinjector removal for about 5 seconds; and (5) Perform OCT imaging. (6) Euthanasia was performed according to the IACUC protocol, and 1 hour after injection, eyes were microdissected to assess ICG distribution.
The ICG stained area was measured with Image-pro Plus 6 equipment. […] One of four eyes injected with the OCLX-SCDD 1100 μm POC prototype device had trace amounts of ICG in the vitreous. Based on the results in FIG. 12, to avoid intravitreal injection, alpha prototypes were redesigned to have a shorter length, targeting 925 μm, and future pig studies were performed with this needle length.

[2] = parameters: species or system Yucatan minipig; conditions: minipig, in vivo
Description: OCLX-SCDD alpha prototype targeting of the SC space with ICG in pig eyes (FIG. 12).
Suprachoroidal injections enable precise, targeted delivery to the retina, retinal pigment epithelium (RPE), and choroid, potentially offering higher bioavailability to the diseased tissues while minimizing impact on anterior segment tissues. To improve SC gene therapy outcomes for AMD, we tested the alpha prototype device to determine whether the SCDD results in ICG dye distribution to the posterior pole. […] Indocyanine Green (ICG) (5 mg/ml), OS: 120 μl or OD: 150 μl, was injected using the OCLX-SCDD 925 μm alpha prototype as follows: (1) Mark and confirm selected injection site; (2) Insert the microneedle, being sure to create a small dimple on the ocular surface to allow the tissue to displace gently while the needle enters the suprachoroidal space; (3) Inject slowly and deliberately for 5 seconds; (4) After finishing the drug injection, hold the microinjector in place for an additional 5 seconds. Light pressure should be applied with a cotton swab after microinjector removal for about 5 seconds; and (5) Check IOP after injection. […]
To evaluate the effect of SC injection, images were taken after removal of the retina and RPE/Choroidal tissue (FIG. 14). The ICG stained area was measured with Image-pro Plus 6. […]

[3] = parameters: species or system pig
Description: Ex vivo assessment of ocular biodistribution of ICG with OCLX-SCDD Proof of Concept (POC) prototypes and Clearside needles at 900 and 1100 μm in pig eyes.
In this non-GLP study, we evaluated the ability of OCLX-SCDD to deliver accurately to the suprachoroidal space (SCS) and determined the optimal needle length for effective delivery. […] Ex vivo testing involved a comparative analysis of the dye's ocular biodistribution between OCLX-SCDD POCs 1-4 and the established Clearside device, allowing us to determine whether the new design offers improved delivery accuracy and effectiveness. Forty pig eyes were obtained from a farm 1 day prior to testing and SC 120 μl injections (5 mg/ml) were performed (one supertemporal injection site/eye) with ICG. Needles used included 900 μm and 1100 μm length samples from both Oculogenex and Clearside (CLS-900 and CLS-1100). One hour after injection, dissection of the eyes was performed. Images were taken with an iPhone 15 Pro camera after removal of retina, RPE/Choroidal tissue. The ICG-stained area was measured by a masked reader with Image-pro Plus 6 (Media Cybernetisc, Rockville, MD, USA) to objectively assess ICG distribution through software.

Structure (SMILES): CC1(C)C(/C=C/C=C/C=C/C=C2\N(CCCCS(=O)(=O)O)c3ccc4ccccc4c3C2(C)C)=[N+](CCCCS(=O)(=O)[O-])c2ccc3ccccc3c21 [ICG, Indocyanine Green]
- Comparison of ICG-stained area between POC4 and Clearside 1100 μm device ([1]; 1 hour after SC injection and microdissection): no significant difference
- ICG stained area, total coverage area ([1]; minipigs in vivo, device Clearside 1100 μm): 55%
- ICG stained area, total coverage area ([1]; minipigs in vivo, device OCLX-SCDD POC4 1100 μm): 55%
- Eyes with trace amounts of ICG in the vitreous ([1]; minipigs in vivo, device OCLX-SCDD 1100 μm POC prototype): One of four
- Eyes with successful targeting of the SC space [2]: 100%
- OCLX-SCDD prototypes that delivered ICG dye to the SCS alone, no biodistribution to other ocular tissues [3]: 100%
